Measured values: patent EP0623131B1 (ANGELINI RICERCHE S.p.A. SOCIETA' CONSORTILE, priority 1992, dated 1993)

Experiment: DL50 (acute lethal dose)
Settings: species, route and unit not given

| SMILES | DL₅₀ |
| --- | --- |
| CC(CCn1nc2ccccn2c1=O)N1CCN(c2cccc(Cl)c2)CC1 (centres unmarked) [(I) R=R"=R'''=H; R'=CH₃, 2-[3-[4-(3-chlorophenyl)-1-piperazinyl]-3-methylpropyl]-1,2,4-triazole-[4,3-a]-pyridin-3(2H)-one] | ≤ 300 |
| CC1CN(c2cccc(Cl)c2)CCN1CCCn1nc2ccccn2c1=O (centres unmarked) [(I) R=R'=R'''=H; R"=CH₃, 2-[3-[4-(3-chlorophenyl)-1-(2-methyl)-piperazinyl]-propyl]-1,2,4-triazole-[4,3-a]-pyridin-3(2H)-one] | 300 |
| CC1CN(CCCn2nc3ccccn3c2=O)CCN1c1cccc(Cl)c1 (centres unmarked) [(I) R=R'=R"=H; R'''=CH₃, 2-[3-[4-(3-chlorophenyl)-1-(3-methyl)-piperazinyl]-propyl]-1,2,4-triazole-[4,3-a]-pyridin-3(2H)-one] | ≤ 600 |
| CC(CN1CCN(c2cccc(Cl)c2)CC1)Cn1nc2ccccn2c1=O (centres unmarked) [(I) R'=R"=R'''=H; R=CH₃, 2-[3-[4-(3-chlorophenyl)-1-piperazinyl]-2-methylpropyl]-1,2,4-triazole[4,3-a]-pyridin-3-(2H)-one] | ≤ 600 |
| O=c1n(CCCN2CCN(c3cccc(Cl)c3)CC2)nc2ccccn12 [trazodone, Trazodone, reference compound] | ≥ 200 |
